Assay: Pharmacokinetics after oral administration to a human
Conditions: in vivo
[1] = single-dose oral administration of 30 mg to a human

Tmax (oral administration to a human, read-out: median Tmax): 0.5 to 2 h
AUC [1]: 484 to 489 ng·h/mL
Cmax [1]: 122 to 147 ng/mL
Compound: CC[C@@H](Nc1c(Nc2cccc(C(=O)N(C)C)c2O)c(=O)c1=O)c1ccc(C)o1 [formula (1.0A)]

Reference: patent US20110009482A1, “METHODS OF TREATING COPD” (Schering Corporation, priority 2007, published 2011)
